Results as given in PMC6892409, “Phenotypic proteomic profiling identifies a landscape of targets for circadian clock–modulating compounds” (Life Science Alliance, 2019).
Where two headings read alike, the source gives them in different places.

Key:
SARS2 = SARS2 (Homo sapiens, UniProt Q9NP81); test: TPP in intact U2OS cells; format: binding
[1] = biological target: Cleavage stimulation factor subunit 2 tau variant (CSTF2T) (Homo sapiens, UniProt Q9H0L4); test: TPP in intact U2OS cells; format: binding; details: vs vehicle
Synechococcus elongatus = test: Luminescence rhythm period assay in cyanobacteria; details: 3, 8, 16 and 32 μM
Description: The D730nm was maintained between 0.27 and 0.45 by dilution with fresh medium.
Circadian period–altering compounds (dissolved in DMSO, final 0.5% DMSO) were then added in the air medium to reach the different desired concentrations. […] Images were generated from integrated photon counts over 25 min every 30 min using Metamorph software (Molecular Devices). […] Exported images were composed into image stacks and were quantified in a time series using a custom script in NIH ImageJ software, applying the “Multi Measure” plugin.

Per2-dLuc U2OS cells = test: Circadian luminescence period assay, Per2-dLuc U2OS cells; format: cell-based, human; details: 7 μM, mean ± SEM, control 24.2 ± […]
Description: Per2-dLuc U2OS osteosarcoma and Bmal1-dLuc U2OS osteosarcoma reporter cell lines were gifts from Dr Andrew Liu, University of Memphis, USA ([Liu et al, 2008]). […] The cells were cultured at 37°C, 5% CO2 in a standard humidified incubator.

F-box protein 21 (FBX21) = F-box protein 21 (FBX21) (Homo sapiens, UniProt O94952); test: TPP in intact U2OS cells; format: binding; details: vs vehicle
PSMG4 = PSMG4 (Homo sapiens, UniProt Q5JS54); test: TPP in intact U2OS cells; format: binding; details: vs vehicle
RPL37 = RPL37 (Homo sapiens, UniProt P61927); test: TPP in intact U2OS cells; format: binding; details: vs vehicle
DYNC1I2 = DYNC1I2 (Homo sapiens, UniProt Q13409); test: TPP in intact U2OS cells; format: binding; details: vs vehicle
CK1d = biological target: T1, CK1d (Homo sapiens, UniProt P48730); test: Radiometric HotSpot kinase assay; format: biochemical; details: n = 3, remaining activity vs DMSO, read-out: Enzyme activity (%) CK1d
T1 construct: purchased Reaction Biology
Description: (§1) In brief, specific kinase/substrate pairs were mixed in a buffer containing 20 mM Hepes (pH 7.5), 10 mM MgCl2, 1 mM EGTA, 0.02% Brij35, 0.02 mg/ml BSA, 0.1 mM Na3VO4, 2 mM DTT, and 1% DMSO. […] After a 20-min incubation, ATP (cat. no. A7699; Sigma-Aldrich) and [γ-^33P] ATP (cat. no. NEG602H001MC; PerkinElmer) were added at a final total concentration of […].

CDK2 = biological target: T2, CDK2 (Homo sapiens, UniProt P24941); test: Radiometric HotSpot kinase assay; format: biochemical; details: n = 3, remaining activity vs DMSO, read-out: Enzyme activity (%) CDK2
T2 construct: purchased Reaction Biology
Description: as §1

ERK2/MAPK1 = biological target: T3, ERK2/MAPK1 (Homo sapiens, UniProt P28482); test: Radiometric HotSpot kinase assay; format: biochemical; details: 100 μM, n = 3; remaining activity vs DMSO; read-out: Enzyme activity (%) ERK2/MAPK1
T3 construct: purchased Reaction Biology
Description: as §1

TNIK = biological target: T4, TNIK (Homo sapiens, UniProt Q9UKE5); test: Radiometric HotSpot kinase assay; format: biochemical
T4 construct: purchased Reaction Biology
Description: as §1

MST4/STK26 = biological target: T5, MST4/STK26 (Homo sapiens, UniProt Q9P289); test: Radiometric HotSpot kinase assay; format: biochemical; details: 100 μM, n = 3; remaining activity vs DMSO; read-out: Enzyme activity (%) MST4/STK26
T5 construct: purchased Reaction Biology
Description: as §1

CK2a = biological target: T6, CK2a (Homo sapiens, UniProt P68400); test: Radiometric HotSpot kinase assay; format: biochemical; details: 100 μM, n = 3; remaining activity vs DMSO; read-out: Enzyme activity (%) CK2a
T6 construct: purchased Reaction Biology
Description: as §1

ERK1/MAPK3 = biological target: T7, ERK1/MAPK3 (Homo sapiens, UniProt P27361); test: Radiometric HotSpot kinase assay; format: biochemical; details: 100 μM, n = 3; remaining activity vs DMSO; read-out: Enzyme activity (%) ERK1/MAPK3
T7 construct: purchased Reaction Biology
Description: as §1

CDK7 = biological target: T8, CDK7 (Homo sapiens, UniProt P50613); test: Radiometric HotSpot kinase assay; format: biochemical; details: 100 μM, n = 3; remaining activity vs DMSO; read-out: Enzyme activity (%) CDK7
T8 construct: purchased Reaction Biology
Description: as §1

CAMK2d = biological target: T9, CAMK2d (Homo sapiens, UniProt Q13557); test: Radiometric HotSpot kinase assay; format: biochemical; details: 100 μM, n = 3; remaining activity vs DMSO; read-out: Enzyme activity (%) CAMK2d
T9 construct: purchased Reaction Biology
Description: as §1

TNS1 = TNS1 (Homo sapiens, UniProt Q9HBL0); test: TPP in intact U2OS cells; format: binding; details: vs vehicle
[2] = biological target: Rab GTPase-binding effector protein 1 (RABEP1) (Homo sapiens, UniProt Q15276); test: TPP in intact U2OS cells; details: vs vehicle
CYCS = CYCS (Homo sapiens, UniProt P99999); test: TPP in intact U2OS cells; format: binding; details: vs vehicle
NFU1 = NFU1 (Homo sapiens, UniProt Q9UMS0); test: TPP in intact U2OS cells; format: binding; details: vs vehicle
Sequence of NFU1 (Q9UMS0 10-254): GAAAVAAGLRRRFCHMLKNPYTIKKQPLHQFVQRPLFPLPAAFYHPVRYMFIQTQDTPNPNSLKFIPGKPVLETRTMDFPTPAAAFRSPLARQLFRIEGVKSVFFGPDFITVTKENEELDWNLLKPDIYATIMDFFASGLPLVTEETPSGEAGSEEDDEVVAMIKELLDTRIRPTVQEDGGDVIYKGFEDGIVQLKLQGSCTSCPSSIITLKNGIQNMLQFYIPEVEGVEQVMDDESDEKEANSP

Sequence of SARS2 (Q9NP81 35-518): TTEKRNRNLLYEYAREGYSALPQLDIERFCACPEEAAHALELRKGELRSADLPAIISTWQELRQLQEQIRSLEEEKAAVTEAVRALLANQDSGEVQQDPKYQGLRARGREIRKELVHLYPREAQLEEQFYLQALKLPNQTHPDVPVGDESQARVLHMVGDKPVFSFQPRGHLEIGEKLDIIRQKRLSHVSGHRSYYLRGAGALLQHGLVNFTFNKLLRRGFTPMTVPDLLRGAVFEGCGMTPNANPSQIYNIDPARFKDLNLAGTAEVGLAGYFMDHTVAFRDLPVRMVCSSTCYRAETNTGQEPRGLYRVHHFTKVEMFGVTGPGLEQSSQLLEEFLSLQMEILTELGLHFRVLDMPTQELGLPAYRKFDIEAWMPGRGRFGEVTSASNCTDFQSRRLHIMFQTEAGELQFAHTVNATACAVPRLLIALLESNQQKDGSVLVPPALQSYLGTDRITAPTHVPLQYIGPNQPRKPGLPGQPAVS
Sequence of CYCS (P99999 whole entry): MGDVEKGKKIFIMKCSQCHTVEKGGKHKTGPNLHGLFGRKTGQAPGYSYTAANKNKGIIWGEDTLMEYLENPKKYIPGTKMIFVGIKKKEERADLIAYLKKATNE
Sequence of DYNC1I2 (Q13409 whole entry): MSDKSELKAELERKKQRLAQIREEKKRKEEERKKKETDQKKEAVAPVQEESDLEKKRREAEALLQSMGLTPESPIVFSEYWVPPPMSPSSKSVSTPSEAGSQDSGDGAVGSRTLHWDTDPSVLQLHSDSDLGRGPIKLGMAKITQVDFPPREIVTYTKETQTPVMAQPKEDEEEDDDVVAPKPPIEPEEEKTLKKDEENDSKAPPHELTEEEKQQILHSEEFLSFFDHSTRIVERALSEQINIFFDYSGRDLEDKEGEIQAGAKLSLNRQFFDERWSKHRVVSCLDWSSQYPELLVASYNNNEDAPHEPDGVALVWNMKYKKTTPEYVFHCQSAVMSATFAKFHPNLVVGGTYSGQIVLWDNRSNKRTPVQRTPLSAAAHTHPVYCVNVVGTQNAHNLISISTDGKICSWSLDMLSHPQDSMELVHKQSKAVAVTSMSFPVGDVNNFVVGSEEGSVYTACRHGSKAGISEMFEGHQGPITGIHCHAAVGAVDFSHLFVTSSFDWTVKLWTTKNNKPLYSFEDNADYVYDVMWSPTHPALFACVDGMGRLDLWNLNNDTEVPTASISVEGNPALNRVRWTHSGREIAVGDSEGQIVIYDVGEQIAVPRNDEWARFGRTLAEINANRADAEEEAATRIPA
Sequence of Rab GTPase-binding effector protein 1 (RABEP1) (Q15276 whole entry): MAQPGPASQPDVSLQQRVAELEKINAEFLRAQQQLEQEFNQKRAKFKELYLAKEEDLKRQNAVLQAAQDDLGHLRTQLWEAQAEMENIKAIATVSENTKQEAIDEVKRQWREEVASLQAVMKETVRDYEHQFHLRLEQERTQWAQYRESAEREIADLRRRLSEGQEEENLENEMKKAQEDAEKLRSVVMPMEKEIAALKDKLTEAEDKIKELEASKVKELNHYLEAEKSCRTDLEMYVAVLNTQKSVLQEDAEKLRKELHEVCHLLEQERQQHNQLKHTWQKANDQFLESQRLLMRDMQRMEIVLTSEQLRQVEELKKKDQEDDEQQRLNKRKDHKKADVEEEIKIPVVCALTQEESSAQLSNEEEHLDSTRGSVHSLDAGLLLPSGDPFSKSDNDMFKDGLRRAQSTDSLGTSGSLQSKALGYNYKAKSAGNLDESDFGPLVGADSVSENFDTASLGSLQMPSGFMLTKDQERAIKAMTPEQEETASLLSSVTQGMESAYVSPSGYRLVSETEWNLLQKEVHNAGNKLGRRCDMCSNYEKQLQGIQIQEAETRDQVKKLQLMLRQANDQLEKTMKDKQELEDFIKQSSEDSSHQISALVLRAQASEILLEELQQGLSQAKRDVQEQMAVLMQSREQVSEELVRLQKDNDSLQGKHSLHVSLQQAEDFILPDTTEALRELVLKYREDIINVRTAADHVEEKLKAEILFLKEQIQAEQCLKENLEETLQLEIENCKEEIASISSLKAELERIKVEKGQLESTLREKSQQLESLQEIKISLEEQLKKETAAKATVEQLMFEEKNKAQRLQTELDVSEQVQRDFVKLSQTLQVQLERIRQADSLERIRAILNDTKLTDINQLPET
Sequence of PSMG4 (Q5JS54 whole entry): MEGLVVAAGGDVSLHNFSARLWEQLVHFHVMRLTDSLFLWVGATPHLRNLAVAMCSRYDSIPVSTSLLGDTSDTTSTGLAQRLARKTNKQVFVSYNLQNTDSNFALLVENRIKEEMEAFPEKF
Sequence of TNS1 (Q9HBL0 whole entry): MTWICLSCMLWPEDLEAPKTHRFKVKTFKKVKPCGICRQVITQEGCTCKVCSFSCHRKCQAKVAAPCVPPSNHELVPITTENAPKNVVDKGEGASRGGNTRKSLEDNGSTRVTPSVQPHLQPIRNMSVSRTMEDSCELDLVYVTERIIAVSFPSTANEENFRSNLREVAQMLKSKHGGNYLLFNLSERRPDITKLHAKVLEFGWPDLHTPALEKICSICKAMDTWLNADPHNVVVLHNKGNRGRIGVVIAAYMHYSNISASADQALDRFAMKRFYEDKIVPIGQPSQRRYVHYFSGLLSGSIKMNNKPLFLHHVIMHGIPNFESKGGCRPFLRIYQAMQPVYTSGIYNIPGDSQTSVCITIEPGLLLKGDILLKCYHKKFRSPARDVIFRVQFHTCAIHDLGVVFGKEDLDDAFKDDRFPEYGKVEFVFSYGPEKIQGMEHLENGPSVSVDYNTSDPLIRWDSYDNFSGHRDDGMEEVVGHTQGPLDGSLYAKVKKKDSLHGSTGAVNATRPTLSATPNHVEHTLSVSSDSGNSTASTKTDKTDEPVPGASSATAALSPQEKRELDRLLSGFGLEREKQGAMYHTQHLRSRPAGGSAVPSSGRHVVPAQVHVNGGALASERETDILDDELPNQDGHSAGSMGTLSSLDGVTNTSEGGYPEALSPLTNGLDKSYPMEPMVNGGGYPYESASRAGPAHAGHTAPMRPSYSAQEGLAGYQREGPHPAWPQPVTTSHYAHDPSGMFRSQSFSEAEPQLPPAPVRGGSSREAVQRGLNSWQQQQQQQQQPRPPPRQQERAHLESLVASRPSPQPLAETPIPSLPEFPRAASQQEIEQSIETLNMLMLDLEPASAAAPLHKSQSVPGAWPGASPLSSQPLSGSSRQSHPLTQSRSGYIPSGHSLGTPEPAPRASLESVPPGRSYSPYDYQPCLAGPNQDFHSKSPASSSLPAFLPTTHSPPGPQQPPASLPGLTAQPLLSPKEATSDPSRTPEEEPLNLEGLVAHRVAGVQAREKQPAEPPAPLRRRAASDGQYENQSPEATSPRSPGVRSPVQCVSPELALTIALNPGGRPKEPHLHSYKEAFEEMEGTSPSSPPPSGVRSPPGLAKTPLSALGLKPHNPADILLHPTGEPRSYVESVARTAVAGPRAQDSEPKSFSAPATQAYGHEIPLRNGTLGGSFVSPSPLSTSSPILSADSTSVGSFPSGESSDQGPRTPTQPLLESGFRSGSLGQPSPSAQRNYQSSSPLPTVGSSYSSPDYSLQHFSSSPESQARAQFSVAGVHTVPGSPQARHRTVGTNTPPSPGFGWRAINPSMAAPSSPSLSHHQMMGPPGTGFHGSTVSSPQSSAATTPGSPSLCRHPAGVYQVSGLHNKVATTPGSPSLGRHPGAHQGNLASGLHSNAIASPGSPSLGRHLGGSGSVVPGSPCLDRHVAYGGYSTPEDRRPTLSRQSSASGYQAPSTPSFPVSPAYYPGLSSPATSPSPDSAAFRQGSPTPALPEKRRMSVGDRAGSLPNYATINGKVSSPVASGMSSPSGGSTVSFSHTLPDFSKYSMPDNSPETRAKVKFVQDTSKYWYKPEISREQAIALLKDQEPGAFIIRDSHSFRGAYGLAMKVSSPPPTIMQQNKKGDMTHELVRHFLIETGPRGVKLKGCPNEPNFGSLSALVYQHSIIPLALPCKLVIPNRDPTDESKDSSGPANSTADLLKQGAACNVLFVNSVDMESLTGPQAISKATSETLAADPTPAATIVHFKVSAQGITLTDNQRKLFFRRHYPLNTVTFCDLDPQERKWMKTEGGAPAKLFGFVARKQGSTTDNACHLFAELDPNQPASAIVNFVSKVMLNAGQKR
Sequence of F-box protein 21 (FBX21) (O94952 whole entry): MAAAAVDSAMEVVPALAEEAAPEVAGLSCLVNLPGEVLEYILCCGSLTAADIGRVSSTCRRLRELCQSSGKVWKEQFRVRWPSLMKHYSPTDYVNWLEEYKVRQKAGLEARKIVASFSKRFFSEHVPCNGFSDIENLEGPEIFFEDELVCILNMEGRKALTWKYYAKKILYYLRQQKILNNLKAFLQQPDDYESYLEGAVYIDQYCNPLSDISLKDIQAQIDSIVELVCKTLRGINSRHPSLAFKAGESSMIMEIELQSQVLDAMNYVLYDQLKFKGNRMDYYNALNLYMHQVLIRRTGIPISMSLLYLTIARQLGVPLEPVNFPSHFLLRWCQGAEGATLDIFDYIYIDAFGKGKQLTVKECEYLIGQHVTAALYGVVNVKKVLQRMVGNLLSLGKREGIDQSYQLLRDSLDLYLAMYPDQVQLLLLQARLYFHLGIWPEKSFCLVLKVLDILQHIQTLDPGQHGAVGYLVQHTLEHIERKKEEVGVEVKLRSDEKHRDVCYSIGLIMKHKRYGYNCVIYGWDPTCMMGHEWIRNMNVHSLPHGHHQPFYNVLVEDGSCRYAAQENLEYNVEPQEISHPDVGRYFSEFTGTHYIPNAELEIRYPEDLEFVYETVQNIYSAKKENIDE

SMILES: Oc1c2ccccc2c2c3c(cccc13)N=N2 [SP600125]
- ΔTm at 10 µM (SARS2; read-out: + Tm shift SARS2, Rep1): 1.2 °C
- ΔTm at 10 µM (SARS2; read-out: + Tm shift SARS2, Rep2): 1.3 °C
- ΔTm at 10 µM ([1]; Rep1, read-out: + Tm shift CSTF2T, Rep1): 1.3 °C
- ΔTm at 10 µM ([1]; Rep2, read-out: + Tm shift CSTF2T, Rep2): 1.8 °C
- Effect on period length in cyanobacteria (Synechococcus elongatus): do not affect period length
- Circadian period length (Per2-dLuc U2OS cells): 28.6 ± 0.1 h
- ΔTm at 10 µM (F-box protein 21 (FBX21); Rep1, read-out: + Tm shift FBX21, Rep1): 3.2 °C
- ΔTm at 10 µM (F-box protein 21 (FBX21); Rep2, read-out: + Tm shift FBX21, Rep2): 2.3 °C
- ΔTm at 10 µM (PSMG4; Rep1, read-out: + Tm shift PSMG4, Rep1): 3.4 °C
- ΔTm at 10 µM (PSMG4; Rep2, read-out: + Tm shift PSMG4, Rep2): 3.5 °C
- ΔTm at 10 µM (RPL37; Rep1, read-out: + Tm shift RPL37, Rep1): 2.9 °C
- ΔTm at 10 µM (RPL37; Rep2, read-out: + Tm shift RPL37, Rep2): 2.1 °C
- ΔTm at 10 µM (DYNC1I2; Rep1, read-out: + Tm shift DYNC1I2, Rep1): 2.5 °C
- ΔTm at 10 µM (DYNC1I2; Rep2, read-out: + Tm shift DYNC1I2, Rep2): 0.8 °C
- remaining activity at 100 µM (CK1d): 0.9%
- remaining activity at 100 µM (CDK2): 5.3%
- remaining activity at 100 µM (ERK2/MAPK1): 70.7%
- remaining activity at 100 µM (TNIK; 100 μM, n = 3, remaining activity vs DMSO, read-out: Enzyme activity (%) TNIK): 1.1%
- IC50 (TNIK; 10-dose, threefold serial dilution starting at 100 μM): < 500 nM
- remaining activity at 100 µM (MST4/STK26): 14.4%
- remaining activity at 100 µM (CK2a): 5.7%
- remaining activity at 100 µM (ERK1/MAPK3): 76.7%
- remaining activity at 100 µM (CDK7): 13.2%
- remaining activity at 100 µM (CAMK2d): 14.7%
- ΔTm at 10 µM (TNS1; Rep1, read-out: + Tm shift TNS1, Rep1): 1.1 °C
- ΔTm at 10 µM (TNS1; Rep2, read-out: + Tm shift TNS1, Rep2): 1.6 °C
- ΔTm at 10 µM ([2]; Rep1, read-out: + Tm shift RABEP1, Rep1): 3.5 °C
- ΔTm at 10 µM ([2]; Rep2, read-out: + Tm shift RABEP1, Rep2): 4.4 °C
- ΔTm at 10 µM (CYCS; Rep1, read-out: + Tm shift CYCS, Rep1): 1 °C
- ΔTm at 10 µM (CYCS; Rep2, read-out: + Tm shift CYCS, Rep2): 1 °C
- ΔTm at 10 µM (NFU1; Rep1, read-out: + Tm shift NFU1, Rep1): 1.3 °C
- ΔTm at 10 µM (NFU1; Rep2, read-out: + Tm shift NFU1, Rep2): 1.2 °C
